Several values for one entry are separate records, joined by “and”; a condition that tells them apart may be missing. Equal values may be shown once.
Experiments:
MUC5AC = tested on: MUC5AC; design: method as in PMID 23187130; settings: airway epithelial cells; BIRB796 at high concentration; cited from earlier work
p38αT106M = target: T1, p38αT106M (Homo sapiens, UniProt Q16539, T106M); test: KinaseProfiler quantitative kinase assay (Eurofins), MBP substrate; type: biochemical; settings: ATP at Km 70 µM, means of duplicate determinations
T1 construct: purchased Eurofins Pharma Discovery Services UK Limited (KinaseProfiler service)
Experimental: (§1) SU-002 derivatives (SU-001, 003, 004, 005, and 006, shown in Fig. 3A) were synthesized and the inhibitory activities of SU-002 and its derivatives against p38αT106M were tested. […] We then conducted quantitative kinase assay analyses including IC50 using the KinaseProfiler service of Eurofins Pharma Discovery Services. MBP was used as a substrate for all tested p38 isoforms: p38α, p38αT106M, p38γ, and p38δ. All p38 isoforms used were activated using a constitutively active mutant of MKK6. […] Next, we examined their effects in HeLa cells. […] To verify the specificity of SU-005 for p38δ, a FLAG-tagged p38δM107T was constructed and tested in a similar manner.
(§2) Quantitative kinase assay analyses including IC50 were conducted using the KinaseProfiler service of Eurofins Pharma Discovery Services UK Limited.

p38α = target: T2, p38α (Homo sapiens, UniProt Q16539); test: as above; type: biochemical; settings: ATP at Km 90 µM, means of duplicate determinations
T2 construct: purchased Eurofins Pharma Discovery Services UK Limited (KinaseProfiler service)
Experimental: as §1, §2

p38δ = target: T3, p38δ (Homo sapiens, UniProt O15264); test: as above; type: biochemical; settings: ATP at Km 15 µM, means of duplicate determinations
T3 construct: purchased Eurofins Pharma Discovery Services UK Limited (KinaseProfiler service)
T3 sequence (O15264 1-365): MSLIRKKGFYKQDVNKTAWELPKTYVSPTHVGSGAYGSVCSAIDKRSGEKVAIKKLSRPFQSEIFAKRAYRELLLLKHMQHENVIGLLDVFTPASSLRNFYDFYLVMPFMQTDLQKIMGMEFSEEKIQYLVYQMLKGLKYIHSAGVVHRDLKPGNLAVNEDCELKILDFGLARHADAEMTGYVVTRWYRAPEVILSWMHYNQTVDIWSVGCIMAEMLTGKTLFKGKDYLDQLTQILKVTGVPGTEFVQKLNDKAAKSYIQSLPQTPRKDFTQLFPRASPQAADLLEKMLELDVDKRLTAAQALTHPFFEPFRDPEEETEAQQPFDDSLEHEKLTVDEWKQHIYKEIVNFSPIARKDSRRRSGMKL
Experimental: as §1, §2

p38γ = target: T4, p38γ (Homo sapiens, UniProt P53778); test: as above; type: biochemical; design: purchased Eurofins Pharma Discovery Services UK Limited (KinaseProfiler service); settings: ATP at Km 15 µM, means of duplicate determinations
T4 sequence (P53778 1-367): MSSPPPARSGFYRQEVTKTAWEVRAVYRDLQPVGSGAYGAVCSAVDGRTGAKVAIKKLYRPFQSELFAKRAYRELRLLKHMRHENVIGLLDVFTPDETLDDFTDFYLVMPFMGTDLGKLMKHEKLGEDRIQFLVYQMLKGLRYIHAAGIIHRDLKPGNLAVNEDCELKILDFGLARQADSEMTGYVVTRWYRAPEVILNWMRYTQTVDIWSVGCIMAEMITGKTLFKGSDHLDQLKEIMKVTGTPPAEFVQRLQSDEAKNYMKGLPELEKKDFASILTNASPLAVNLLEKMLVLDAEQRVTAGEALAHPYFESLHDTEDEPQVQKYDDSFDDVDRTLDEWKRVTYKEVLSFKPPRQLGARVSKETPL
Experimental: as §1, §2

GST-p38αT106M = target: T5, GST-p38αT106M (Homo sapiens, UniProt Q16539, T106M); test: In vitro kinase assay, GST-ATF2 substrate, [γ-32P]ATP; type: biochemical
T5 construct: made in house
Experimental: (§3) Bacterially produced GST-p38α and GST-p38αT106M were used for the kinase assay. GST-ATF2 (1–109)[34] was used as a substrate. The assay conditions used have been previously described. […] DMSO (1 μL) was used instead of compound as a negative control. Then, the mixture was combined with the solution containing 1 μg substrate protein, 185 kBq [γ-^32P]ATP and 20 μΜ ATP to generate a 15 μL reaction mixture and incubated for 30 min at 30 °C. The reaction was terminated by adding 7.5 μL of 3 × SDS sample buffer and boiled for 5 min. Phosphorylated substrate protein was then separated by 12.5% SDS- polyacrylamide gel electrophoresis and visualized by autoradiography.

endogenous p38γ = target: T6, endogenous p38γ (Homo sapiens, UniProt P53778); test: Endogenous p38γ auto-phosphorylation in HEK293T cells, western blot; type: cell-based; settings: 10 μM, 0.2 M NaCl stimulation, Fig. 6
T6 construct: endogenous in cells; host or cells: HEK293T
T6 sequence (P53778 1-367): T4 sequence (P53778 1-367)
Experimental: For the analyses with HEK293T cells, 1 × 10^5 cells were seeded into each well of a 48-well plate. The next day, 10 μM SU derivative or SB202190 was added 1 h prior to stimulation of the cells with 0.2 M NaCl. The cells were further grown in DMEM supplemented with 10% FBS for 20 min. Then, the cells were rinsed once with PBS and harvested in 1 × SDS sample buffer.

GST-p38α = target: T7, GST-p38α (Homo sapiens, UniProt Q16539); test: In vitro kinase assay, GST-ATF2 substrate, [γ-32P]ATP; type: biochemical; settings: Fig. 2C, SU-002 0.06-7.6 μM
T7 construct: made in house
Experimental: as §3

GST-p38αT106M mutant = target: T8, GST-p38αT106M mutant (Homo sapiens, UniProt Q16539, T106M); test: Comparative chemical array screening, binding to GST-p38αT106M; settings: Table S2
T8 construct: made in house; host or cells: bacteria (stated for the kinase assay)
Experimental: Photo-cross-linked chemical arrays were prepared by the previously described method[33] utilizing a photoaffinity proline linker that had both PEG and a polyproline helix as spacers.
The slides were then washed with TBS-T buffer (10 mM Tris/HCl, 150 mM NaCl, 0.05% Tween-20, pH 8.0) three times for 5 min each and centrifuged (480 × g, 1 min) to dry. […] After washing with TBS-T buffer, the slides were incubated with an anti-GST antibody (30 μg/mL) in binding buffer at 30 °C for 1 h. This incubation was followed by another wash step and incubation with a secondary antibody (goat anti-rabbit IgG, Cy5 conjugate, 50 μg/mL in binding buffer) at 30 °C for 1 h. After the final wash step and spin dry, the slides were scanned at 635 nm on a GenePix 4300A microarray scanner (Molecular Devices). The fluorescence intensity (I) of each compound spot was quantified with GenePix 5.0 software with local background correction. Then, the difference (ΔΙ) of the fluorescence intensities between the GST-p38αT106M and GST-p38α-treated arrays was calculated by subtracting Ip38α from IT106M (ΔI = IT106M - Ip38α) for each spot. The mean and standard deviation (SD) of ΔI for all spots on the array were also calculated. The ΔΙ score of each spot was calculated using the following formula; ΔΙ score = (ΔI - mean)/SD. The compounds with a ΔΙ score larger than 2 were determined to be hit compounds for GST-p38αT106M. […]

T8 sequence (Q16539 whole entry T106M): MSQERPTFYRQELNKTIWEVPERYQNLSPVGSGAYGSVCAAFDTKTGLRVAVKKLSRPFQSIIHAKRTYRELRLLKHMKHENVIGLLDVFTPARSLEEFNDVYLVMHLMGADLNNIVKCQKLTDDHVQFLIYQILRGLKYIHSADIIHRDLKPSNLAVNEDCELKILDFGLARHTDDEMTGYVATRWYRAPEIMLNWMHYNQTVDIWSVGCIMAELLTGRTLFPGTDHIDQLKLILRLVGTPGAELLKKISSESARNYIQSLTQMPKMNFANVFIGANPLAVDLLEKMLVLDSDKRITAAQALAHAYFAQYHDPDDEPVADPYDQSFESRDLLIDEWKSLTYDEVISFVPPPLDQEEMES
T5 sequence (Q16539 whole entry T106M): as above
T1 sequence (Q16539 whole entry T106M): as above
T2 sequence (Q16539 whole entry): as the sequence (Q16539 whole entry T106M) above, with M106T counted along it
T7 sequence (Q16539 whole entry): as the sequence (Q16539 whole entry T106M) above, with M106T counted along it

| SMILES | %kinase activity relative to control, p38αT106M (p38αT106M; 1 µM) | %kinase activity relative to control, p38αT106M (p38αT106M; 10 µM) | %kinase activity relative to control, p38α (p38α; 1 µM) | %kinase activity relative to control, p38α (p38α; 10 µM) | %kinase activity relative to control, p38δ (p38δ; 1 µM) | %kinase activity relative to control, p38δ (p38δ; 10 µM) | %kinase activity relative to control, p38γ (p38γ; 1 µM) | %kinase activity relative to control, p38γ (p38γ; 10 µM) | inhibition of p38αT106M kinase activity (GST-p38αT106M; 1 μM, Fig. 3B,C) | inhibition of endogenous p38γ phosphorylation (endogenous p38γ) | inhibition of p38α kinase activity (GST-p38α) | IT106M score (GST-p38αT106M mutant; I score = (I − Imean)/ISD, duplicate spots) | ΔI score (GST-p38αT106M mutant; ΔI = IT106M – Ip38α, ΔI score = (ΔI − ΔImean)/ΔISD, hit if larger than 2) | inhibition of production of MUC5AC mRNA and protein (MUC5AC) | inhibition of p38αT106M kinase activity (GST-p38αT106M; Fig. 2C,D, SU-002 0.012-7.6 μM) |
| --- | --- | --- | --- | --- | --- | --- | --- | --- | --- | --- | --- | --- | --- | --- | --- |
| Cc1ccc(-n2nc(C(C)(C)C)cc2NC(=O)Nc2ccc(OCCN3CCOCC3)c3ccccc23)cc1 [BIRB796] | – | – | – | – | – | – | – | – | – | – | – | – | – | markedly inhibited | – |
| Nc1nnc(Sc2ccnc3cc(Cl)ccc23)s1 [SU-001] | 99 ± 0% | 91 ± 6% | 91 ± 13% | 72 ± 2% | 94 ± 2% | 92 ± 1% | 103 ± 8% | 95 ± 2% | did not inhibit | – | – | – | – | – | – |
| CCCCCCCC(=O)Nc1nnc(Sc2ccnc3cc(Cl)ccc23)s1 [SU-002] | 83 ± 7% | 72 ± 2% | 88 ± 6% | 94 ± 5% | 90 ± 0% | 96 ± 0% | 92 ± 5% | 88 ± 2% | clearly impaired | similarly potent inhibitory activities | this inhibition was not seen | 4.80 and 3.66 | 6.30 and 4.89 | – | inhibited the kinase activity of p38αT106M in a dose-dependent manner |

The next lines start with results.

| %kinase activity relative to control, p38αT106M (p38αT106M; 1 µM) | %kinase activity relative to control, p38αT106M (p38αT106M; 10 µM) | %kinase activity relative to control, p38α (p38α; 1 µM) | %kinase activity relative to control, p38α (p38α; 10 µM) | %kinase activity relative to control, p38δ (p38δ; 1 µM) | %kinase activity relative to control, p38δ (p38δ; 10 µM) | %kinase activity relative to control, p38γ (p38γ; 1 µM) | %kinase activity relative to control, p38γ (p38γ; 10 µM) | inhibition of p38αT106M kinase activity (GST-p38αT106M; 1 μM, Fig. 3B,C) | inhibition of endogenous p38γ phosphorylation (endogenous p38γ) | inhibition of p38α kinase activity (GST-p38α) | IT106M score (GST-p38αT106M mutant; I score = (I − Imean)/ISD, duplicate spots) | ΔI score (GST-p38αT106M mutant; ΔI = IT106M – Ip38α, ΔI score = (ΔI − ΔImean)/ΔISD, hit if larger than 2) | SMILES | inhibition of production of MUC5AC mRNA and protein (MUC5AC) | inhibition of p38αT106M kinase activity (GST-p38αT106M; Fig. 2C,D, SU-002 0.012-7.6 μM) |
| --- | --- | --- | --- | --- | --- | --- | --- | --- | --- | --- | --- | --- | --- | --- | --- |
| 96 ± 4% | 94 ± 1% | 92 ± 8% | 94 ± 6% | 99 ± 2% | 81 ± 1% | 112 ± 3% | 104 ± 6% | – | no or weak inhibitory activity | – | – | – | CC(=O)Nc1nnc(Sc2ccnc3cc(Cl)ccc23)s1 [SU-003] | – | – |
| 99 ± 0% | 94 ± 3% | 91 ± 2% | 86 ± 3% | 100 ± 4% | 97 ± 3% | 111 ± 4% | 104 ± 8% | – | no or weak inhibitory activity | – | – | – | CCCCCC(=O)Nc1nnc(Sc2ccnc3cc(Cl)ccc23)s1 [SU-004] | – | – |

— paper PMC4949465, “Comparative chemical array screening for p38γ/δ MAPK inhibitors using a single gatekeeper residue difference between p38α/β and p38γ/δ” (Scientific Reports, 2016)
